Measurements from patent US20240108618A1, “KRAS G12C INHIBITOR DOSING REGIMENS” (Eli Lilly and Company, priority 2022, published 2024).
Values joined by “and” are separate entries in the source; they are usually repeats but may differ in a detail not shown here. Equal entries are not always repeated.

Key:
[1] = system: KRAS G12C-mutant advanced CRC; test: NCT04956640 Phase 1b Cohort C2 (with cetuximab) clinical response (BOR, ORR, DCR, DOR, TTR, % change from baseline, treatment duration); assay type: in vivo, human; design: key to Best Response: CR: complete response; PR: partial response; uPR: a partial response pending confirmation; SD: stable disease; PD: progressive disease; NE: not estimable; conditions: for Duration of response (DOR) <6 months / Overall response status: Censored / Reason censored: Alive without documented disease progression / Time to response (TTR) <2 months: Phase 1b Cohort C2 responders
Protocol: The term “BOR” as used herein refers to best overall response based on investigator assessments using RECIST criteria (version 1.1). The minimum duration for BOR of SD is at least 6 weeks after the date of first dose of study drug.
The term “DOR” as used herein refers to duration of response, wherein DOR in months is calculated as the event or censoring date minus the response start date plus 1 day divided by 30.4375.
The term “ORR” as used herein refers to objective response rate, wherein objective response rate is the proportion of patients with BOR of CR or PR. Objective response rate, unconfirmed, is the proportion of patients with BOR of CR, PR, or uPR.
The term “TTR” as used herein refers to time to response, wherein TTR in months is calculated as response start date minus first dose date plus 1 day divided by 30.4375.
NCT04956640 includes Phase 1a dose escalation (Part A of NCT04956640, see Table 3) followed by a Phase 1b dose expansion (Parts B to E of NCT04956640, see Table 4). […] Phase 1b dose expansion will include 12 cohorts (See Table 4) to further evaluate safety and clinical activity.

SW837 = SW837 (CRC) xenograft model; assay type: in vivo, mouse
Protocol: (§1) For xenograft models of H1373, HCC44, MiaPaca-2, SW1463, SW837, KYSE-410 and UM-UC-3, typically 5-10×10^6 cells in a 1:1 matrigel mix (0.2 mL total volume) are implanted by subcutaneous injection in hind leg of nude mice. […] Treatment is initiated with oral administration (gavage) of testing compound or vehicle (20% captisol, 25 mM phosphate, pH2.0) in 0.2 mL volume when tumor size reaches approximately 200-300 mg. Tumor growth and body weight are monitored over time to evaluate efficacy and signs of toxicity. For EL3187 PDX model, frozen vials containing tumor fragments are thawed at 37° C. in a water bath. The tumor fragments are transferred to 50 mL Falcon tube and the ice cold DMEM medium is slowly added into the tube to a total volume of 35 mL. Then the tumor fragments are centrifuged at 130×g for 2 minutes at 4° C. and supernatant is aspirated. This washing step is repeated twice and the tumor fragments are resuspended in 10 mL DMEM for implantation into athymic nude-Foxn1nu mice (Envigo RMS, Inc., Mount Comfort, Indiana). Once tumor volumes reach 800 to 1000 mm^3, animals are sacrificed and tumors are harvested using aseptic technique. Fresh tumors are cut into 10 to 15 mm^3 fragments and placed into cold Gibco hibernate medium. The tumor fragments are subcutaneously implanted into animals with a 10 g trochar needle. When tumor size reaches 200 to 300 mm^3, the animals are randomized for compound treatment.
(§2) Among models listed in Table 2, EL3187 is a patient-derived xenograft (PDX) model, and all other are tumor xenograft models.

MiaPaca-2 = MiaPaca-2 (pancreas) xenograft model; assay type: in vivo, mouse
Protocol: as §1, §2

KYSE-410 = KYSE-410 (esophagus) xenograft model; assay type: in vivo, mouse
Protocol: as §1, §2

H1373 = H1373 (lung) xenograft model; assay type: in vivo, mouse
Protocol: as §1, §2

[2] = Phase 1b Cohort C2, Total (N = 11)
[3] = Phase 1b Cohort C2, individual patients, starting dose 100 BID, no prior KRAS G12Ci, listed as compound of Formula I
[4] = Phase 1b Cohort C2, individual patients, starting dose 150 BID, no prior KRAS G12Ci, listed as compound of Formula I
[5] = Phase 1b Cohort C2, starting dose 100 mg BID (N = 6)
[6] = Phase 1b Cohort C2, starting dose 150 mg BID (N = 5)
[7] = starting dose 100 mg BID (N = 6)
[8] = starting dose 150 mg BID (N = 5)

## C=CC(=O)N1CCN2C(=O)c3cc(F)c(-c4ccc(F)c5sc(N)c(C#N)c45)c(Cl)c3OCC[C@H]2C1 (single isomer, unassigned) [Formula I]
[1]; [2]
  Best overall response (BOR): Complete Response (CR): 0 (0.0) n (%)
  Best overall response (BOR): Not Evaluable (NE): 0 (0.0) n (%)
  Best overall response (BOR): Partial Response (PR): 3 (27.3) n (%)
  Best overall response (BOR): Partial Response, pending confirmation and ongoing (uPR): 2 (18.2) n (%)
  Best overall response (BOR): Progressive Disease (PD): 0 (0.0) n (%)
  Disease control rate (CR + PR + iPR + SD), Number of patients: 11 (100.0) n (%)
  Objective response rate (CR + PR), Number of patients: 3 (27.3) n (%)
  Objective response rate, confirmed and unconfirmed (CR + PR + uPR), Number of patients: 5 (45.5) n (%)
  Patients with best overall response of CR or PR: 3 (27.3) N′ (%)
  Time to response (months), Interquartile range: 0.33 months
  Time to response (months), Median: 1.31 months
[1]; Phase 1b Cohort C2, individual patients, starting dose 100 BID, no prior KRAS G12Ci
  Time (months) of Progressive Disease: 4.4 months
[1]; [3]
  % Change from Baseline in Sum of Diameters for all Target Lesions: −22.0% and −23.4% and −38.9% and −48.7% and −55.4% and −67.6%
  Best Response: SD (3×) and PR Confirmed (3×)
  Time (months) of Partial Response - Confirmed: 1.3 months and 1.6 months and 1.2 months
[1]; [4]
  % Change from Baseline in Sum of Diameters for all Target Lesions: −13.6% and −19.4% and −36.7% and −45.7% and −5.7%
  Best Response: SD (3×) and PR Pending (2×)
  Time (months) of Partial Response - Pending Confirmation and Ongoing: 2.1 months and 1.4 months
[1]; [5]
  Best overall response (BOR): Complete Response (CR): 0 (0.0) n (%)
  Best overall response (BOR): Not Evaluable (NE): 0 (0.0) n (%)
  Best overall response (BOR): Partial Response (PR): 3 (50.0) n (%)
  Best overall response (BOR): Partial Response, pending confirmation and ongoing (uPR): 0 (0.0) n (%)
  Best overall response (BOR): Progressive Disease (PD): 0 (0.0) n (%)
  Disease control rate (CR + PR + iPR + SD), Number of patients: 6 (100.0) n (%)
  Objective response rate (CR + PR), Number of patients: 3 (50.0) n (%)
  Objective response rate, confirmed and unconfirmed (CR + PR + uPR), Number of patients: 3 (50.0) n (%)
  Patients with best overall response of CR or PR: 3 (50.0) N′ (%)
  Time to response (months), Interquartile range: 0.33 months
  Time to response (months), Median: 1.31 months
[1]; [6]
  Best overall response (BOR): Complete Response (CR): 0 (0.0) n (%)
  Best overall response (BOR): Not Evaluable (NE): 0 (0.0) n (%)
  Best overall response (BOR): Partial Response (PR): 0 (0.0) n (%)
  Best overall response (BOR): Partial Response, pending confirmation and ongoing (uPR): 2 (40.0) n (%)
  Best overall response (BOR): Progressive Disease (PD): 0 (0.0) n (%)
  Disease control rate (CR + PR + iPR + SD), Number of patients: 5 (100.0) n (%)
  Objective response rate (CR + PR), Number of patients: 0 (0.0) n (%)
  Objective response rate, confirmed and unconfirmed (CR + PR + uPR), Number of patients: 2 (40.0) n (%)
  Patients with best overall response of CR or PR: 0 (0.0) N′ (%)
[1]; Total (N = 11)
  Duration of response (DOR) <6 months: 3 (100.0) n (%)
  Overall response status: Censored: 3 (100.0) n (%)
  Reason censored: Alive without documented disease progression: 3 (100.0) n (%)
  Time to response (TTR) <2 months: 3 (100.0) n (%)
[1]; [7]
  Duration of response (DOR) <6 months: 3 (100.0) n (%)
  Overall response status: Censored: 3 (100.0) n (%)
  Reason censored: Alive without documented disease progression: 3 (100.0) n (%)
  Time to response (TTR) <2 months: 3 (100.0) n (%)
[1]; [8]
  Duration of response (DOR) <6 months: 0 (NE) n (%)
  Overall response status: Censored: 0 (NE) n (%)
  Reason censored: Alive without documented disease progression: 0 (NE) n (%)
  Time to response (TTR) <2 months: 0 (NE) n (%)
[1]; human, in vivo
  median time to response: 1.3 month
SW837; 5 mg/kg BID x28
  tumor growth inhibition (%) or regression (− %): 83.6%
SW837; 5 mg/kg QD x28
  tumor growth inhibition (%) or regression (− %): 18.2%
SW837; 10 mg/kg BID x28
  tumor growth inhibition (%) or regression (− %): 62.1%
SW837; 10 mg/kg QD x28
  tumor growth inhibition (%) or regression (− %): 95.2%
SW837; 30 mg/kg BID x28
  tumor growth inhibition (%) or regression (− %): −23.8%
SW837; 30 mg/kg QD x28
  tumor growth inhibition (%) or regression (− %): 83.5%
MiaPaca-2; 5 mg/kg BID x28
  tumor growth inhibition (%) or regression (− %): −36.1%
MiaPaca-2; 5 mg/kg QD x28
  tumor growth inhibition (%) or regression (− %): 81.7%
MiaPaca-2; 10 mg/kg BID x28
  tumor growth inhibition (%) or regression (− %): −45.2%
MiaPaca-2; 10 mg/kg QD x28
  tumor growth inhibition (%) or regression (− %): −27%
MiaPaca-2; 30 mg/kg BID x28
  tumor growth inhibition (%) or regression (− %): −43.6%
MiaPaca-2; 30 mg/kg QD x28
  tumor growth inhibition (%) or regression (− %): −42%
KYSE-410; 10 mg/kg BID x28
  tumor growth inhibition (%) or regression (− %): 51.5%
KYSE-410; 10 mg/kg QD x28
  tumor growth inhibition (%) or regression (− %): 25.3%
KYSE-410; 30 mg/kg BID x28
  tumor growth inhibition (%) or regression (− %): 61.8%
KYSE-410; 30 mg/kg QD x28
  tumor growth inhibition (%) or regression (− %): 66.7%
H1373; 5 mg/kg BID x28
  tumor growth inhibition (%) or regression (− %): −26.3%
H1373; 5 mg/kg QD x28
  tumor growth inhibition (%) or regression (− %): 97.9%
H1373; 10 mg/kg BID x28
  tumor growth inhibition (%) or regression (− %): −49%
H1373; 10 mg/kg QD x28
  tumor growth inhibition (%) or regression (− %): −21.3%
H1373; 30 mg/kg QD x28
  tumor growth inhibition (%) or regression (− %): −49.7%
